Values quoted from earlier work, collected in patent publication US10300065B2, “Method of treating or prevention of atherothrombotic events in patients with history of myocardial infarction” (ASTRAZENECA AB, priority 2015, dated 2019).

Legend:
[1] = human, in vivo, po; cited from earlier work
[2] = system: patients with acute coronary syndrome; details: PLATO, cited from earlier work

SMILES: CCCSc1nc(N[C@@H]2C[C@H]2c2ccc(F)c(F)c2)c2nnn([C@@H]3C[C@H](O)[C@@H](O)[C@H]3O)c2n1 [AR-C124910XX]
- AUC and cmax of crushed tablets relative to whole tablets (bioequivalence) [1]: 80-125%

SMILES: COC(=O)[C@H](c1ccccc1Cl)N1CCc2sccc2C1 [clopidogrel]
- serum uric acid level increase from baseline ([2]; clopidogrel): approximately 0.2 mg/dL
- reports of gout ([2]; each treatment group): 0.6%
